In patent US8969516B2, “Method of hydrolysis of peptide bond” (priority 2006, dated 2015):

Assay: MALDI-TOF screening of Ni^2+ dependent hydrolysis in a combinatorial peptide library
Format: physicochemical
Conditions: Ni^2+ 2 mM, pH 8.2, 10 mM Tris, score=24/tm
From the text: The sequence CH3CO-Gly-Ala-Ser/Thr-X-His-Z-Lys-Phe-Leu-NH2 was designed so that the fixed R1 and R2 sequences, CH3CO-Gly-Ala, and Lys-Phe-Leu-NH2, respectively, allowed optimal detection by MALDI-TOF mass spectrometry of substrates as well as expected products, Ser/Thr-X-His-Z-Lys-Phe-Leu-NH2 and assured separation between the clusters of signals for substrates and products in sublibraries (see below).
Residues in position X included all amino acids commonly present in proteins, except for Asp, Glu, and Cys. The former two contain carboxylates in their side chains, which may bind Ni^2+ in a way which would quench or slow down the hydrolysis reaction. The Cys residue may do the same, and also may engage in side reactions with Ni^2+ ions, including redox processes (for example see Bal and Kasprzak, Toxicol. Lett. 2002, 127, 55-62). Only the Cys residue was eliminated from position Z, for the same reasons.
The synthesis of the library was accomplished on a RINK amide resin (Novabiochem) on a 800 mg scale, according to a typical Fmoc protocol (Fields, Meth. Enzymol. Vol. 289). The resin-attached Leu-Phe-Lys peptide was synthesised first and coupled with the isokinetic mixture of 19 amino acids selected for position Z, and then with the H is residue. The resin carrying the library of pentapeptides was divided into Ser and Thr halves at this stage, and each of these halves into 17 portions, which were coupled with individual amino acids selected for position X. The coupling with Ser or Thr as appropriate, additions of Ala and Gly residues, acetylation of Gly, deprotection and cleavage from the resin were accomplished subsequently. Each of the resulting 34 samples of sublibraries randomized at position X was separated into two portions, one for the reaction at 37° C. and another for the reaction at 45° C. The hydrolysis reactions were accomplished in 10 mM Tris buffers at pH 8.2. The total concentrations of peptide mixtures and Ni^2+ ions were 1 mM and 2 mM, respectively. The pH for the reaction was chosen as selective for highly reactive sequences.
The detection of reaction products was accomplished with the use of a MALDI-TOF mass spectrometer (Micromass). The aliquots were removed from reaction mixtures and measured by MS at 2, 4, 6, and 8 hours of incubation. The progress of reaction was evaluated by visual detection in mass spectra of appearance of signals corresponding to expected products of hydrolysis, Ser/Thr-X-His-Z-Lys-Phe-Leu-NH2, at given measurement times, tm. […] Also the decrease of signals of substrates was controlled in these cases.
Residues X and Z were then sorted according to various molecular parameters, describing their physical properties (Carugo, In Silico Biol. 2003, 3, 0035). […] The Ser library provided a higher number of reactive peptides than the Thr library. Following the additivity of effects, the scores were also summed up in lines and columns of Table 1A-D, thereby creating final rankings for preferred substitutions in positions X and Z.

[1] = CH3CO-Gly-Ala-Ser-X-His-Z-Lys-Phe-Leu-NH2 library, 37° C.
[2] = CH3CO-Gly-Ala-Ser-X-His-Z-Lys-Phe-Leu-NH2 library, 45° C.
[3] = CH3CO-Gly-Ala-Thr-X-His-Z-Lys-Phe-Leu-NH2 library, 37° C.
[4] = CH3CO-Gly-Ala-Thr-X-His-Z-Lys-Phe-Leu-NH2 library, 45° C.

In the case of Ac-GASIHEKFL-NH2 [SIHE], the “hydrolysis score from MALDI-TOF screening” value (from here on “hydrolysis score”) [1] is reported as 0 (a score of 0 if no trace of the product of hydrolysis was seen after 8 hours of incubation) and the “hydrolysis score” value [2] is reported as 0 (a score of 0 if no trace of the product of hydrolysis was seen after 8 hours of incubation).
With Ac-GASYHGKFL-NH2 [SYHG] the “hydrolysis score” value [1] was 0 (a score of 0 if no trace of the product of hydrolysis was seen after 8 hours of incubation) and the “hydrolysis score” value [2] was 0 (a score of 0 if no trace of the product of hydrolysis was seen after 8 hours of incubation).
For Ac-GATSHIKFL-NH2 [TSHI], the “hydrolysis score” value [3] was 0 (a score of 0 if no trace of the product of hydrolysis was seen after 8 hours of incubation) and the “hydrolysis score” value [4] was 0 (a score of 0 if no trace of the product of hydrolysis was seen after 8 hours of incubation).
In the case of Ac-GASMHEKFL-NH2 [SMHE], the “hydrolysis score” value [1] is reported as 0 (a score of 0 if no trace of the product of hydrolysis was seen after 8 hours of incubation) and the “hydrolysis score” value [2] is reported as 0 (a score of 0 if no trace of the product of hydrolysis was seen after 8 hours of incubation).
For Ac-GASQHNKFL-NH2 [SQHN], the “hydrolysis score” value [1] was 0 (a score of 0 if no trace of the product of hydrolysis was seen after 8 hours of incubation) and the “hydrolysis score” value [2] was 0 (a score of 0 if no trace of the product of hydrolysis was seen after 8 hours of incubation).
For Ac-GATNHVKFL-NH2 [TNHV], the “hydrolysis score” value [3] was 0 (a score of 0 if no trace of the product of hydrolysis was seen after 8 hours of incubation) and the “hydrolysis score” value [4] was 0 (a score of 0 if no trace of the product of hydrolysis was seen after 8 hours of incubation).
In the case of Ac-GASSHWKFL-NH2 [SSHW], the “hydrolysis score” value [1] is reported as 6 (a score of 6 for detection at 4 hours) and the “hydrolysis score” value [2] is reported as 12 (a score of 12, if it was seen to be partially hydrolysed at 2 hours).
For Ac-GASQHPKFL-NH2 [SQHP], the “hydrolysis score” value [1] was 0 (a score of 0 if no trace of the product of hydrolysis was seen after 8 hours of incubation) and the “hydrolysis score” value [2] was 0 (a score of 0 if no trace of the product of hydrolysis was seen after 8 hours of incubation).
For Ac-GASHHHKFL-NH2 [SHHH], the “hydrolysis score” value [1] was 0 (a score of 0 if no trace of the product of hydrolysis was seen after 8 hours of incubation) and the “hydrolysis score” value [2] was 0 (a score of 0 if no trace of the product of hydrolysis was seen after 8 hours of incubation).
For Ac-GASLHYKFL-NH2 [SLHY], the “hydrolysis score” value [1] was 0 (a score of 0 if no trace of the product of hydrolysis was seen after 8 hours of incubation) and the “hydrolysis score” value [2] was 3 (a score of 3 for detection at 8 hours).
In the case of Ac-GATSHGKFL-NH2 [TSHG], the “hydrolysis score” value [3] is reported as 0 (a score of 0 if no trace of the product of hydrolysis was seen after 8 hours of incubation) and the “hydrolysis score” value [4] is reported as 0 (a score of 0 if no trace of the product of hydrolysis was seen after 8 hours of incubation).
In the case of Ac-GATFHHKFL-NH2 [TFHH], the “hydrolysis score” value [3] is reported as 0 (a score of 0 if no trace of the product of hydrolysis was seen after 8 hours of incubation) and the “hydrolysis score” value [4] is reported as 0 (a score of 0 if no trace of the product of hydrolysis was seen after 8 hours of incubation).
With Ac-GASKHVKFL-NH2 [SKHV] the “hydrolysis score” value [1] was 4 (a score of 4 for detection at 6 hours) and the “hydrolysis score” value [2] was 6 (a score of 6 for detection at 4 hours).
For Ac-GASTHGKFL-NH2 [STHG], the “hydrolysis score” value [1] was 0 (a score of 0 if no trace of the product of hydrolysis was seen after 8 hours of incubation) and the “hydrolysis score” value [2] was 0 (a score of 0 if no trace of the product of hydrolysis was seen after 8 hours of incubation).
With Ac-GATVHAKFL-NH2 [TVHA] the “hydrolysis score” value [3] was 0 (a score of 0 if no trace of the product of hydrolysis was seen after 8 hours of incubation) and the “hydrolysis score” value [4] was 0 (a score of 0 if no trace of the product of hydrolysis was seen after 8 hours of incubation).
In the case of Ac-GATFHQKFL-NH2 [TFHQ], the “hydrolysis score” value [3] is reported as 0 (a score of 0 if no trace of the product of hydrolysis was seen after 8 hours of incubation) and the “hydrolysis score” value [4] is reported as 0 (a score of 0 if no trace of the product of hydrolysis was seen after 8 hours of incubation).
In the case of Ac-GATFHYKFL-NH2 [TFHY], the “hydrolysis score” value [3] is reported as 0 (a score of 0 if no trace of the product of hydrolysis was seen after 8 hours of incubation) and the “hydrolysis score” value [4] is reported as 0 (a score of 0 if no trace of the product of hydrolysis was seen after 8 hours of incubation).
For Ac-GASNHHKFL-NH2 [SNHH], the “hydrolysis score” value [1] was 0 (a score of 0 if no trace of the product of hydrolysis was seen after 8 hours of incubation) and the “hydrolysis score” value [2] was 3 (a score of 3 for detection at 8 hours).
For Ac-GASQHFKFL-NH2 [SQHF], the “hydrolysis score” value [1] was 3 (a score of 3 for detection at 8 hours) and the “hydrolysis score” value [2] was 4 (a score of 4 for detection at 6 hours).
With Ac-GATLHAKFL-NH2 [TLHA] the “hydrolysis score” value [3] was 0 (a score of 0 if no trace of the product of hydrolysis was seen after 8 hours of incubation) and the “hydrolysis score” value [4] was 0 (a score of 0 if no trace of the product of hydrolysis was seen after 8 hours of incubation).
For Ac-GATWHHKFL-NH2 [TWHH], the “hydrolysis score” value [3] was 0 (a score of 0 if no trace of the product of hydrolysis was seen after 8 hours of incubation) and the “hydrolysis score” value [4] was 0 (a score of 0 if no trace of the product of hydrolysis was seen after 8 hours of incubation).
For Ac-GATAHKKFL-NH2 [TAHK], the “hydrolysis score” value [3] was 0 (a score of 0 if no trace of the product of hydrolysis was seen after 8 hours of incubation) and the “hydrolysis score” value [4] was 0 (a score of 0 if no trace of the product of hydrolysis was seen after 8 hours of incubation).
In the case of Ac-GASTHDKFL-NH2 [STHD], the “hydrolysis score” value [1] is reported as 0 (a score of 0 if no trace of the product of hydrolysis was seen after 8 hours of incubation) and the “hydrolysis score” value [2] is reported as 0 (a score of 0 if no trace of the product of hydrolysis was seen after 8 hours of incubation).
With Ac-GASSHSKFL-NH2 [SSHS] the “hydrolysis score” value [1] was 0 (a score of 0 if no trace of the product of hydrolysis was seen after 8 hours of incubation) and the “hydrolysis score” value [2] was 3 (a score of 3 for detection at 8 hours).
For Ac-GATGHTKFL-NH2 [TGHT], the “hydrolysis score” value [3] was 0 (a score of 0 if no trace of the product of hydrolysis was seen after 8 hours of incubation) and the “hydrolysis score” value [4] was 0 (a score of 0 if no trace of the product of hydrolysis was seen after 8 hours of incubation).
In the case of Ac-GASGHEKFL-NH2 [SGHE], the “hydrolysis score” value [1] is reported as 0 (a score of 0 if no trace of the product of hydrolysis was seen after 8 hours of incubation) and the “hydrolysis score” value [2] is reported as 0 (a score of 0 if no trace of the product of hydrolysis was seen after 8 hours of incubation).
With Ac-GASGHFKFL-NH2 [SGHF] the “hydrolysis score” value [1] was 0 (a score of 0 if no trace of the product of hydrolysis was seen after 8 hours of incubation) and the “hydrolysis score” value [2] was 0 (a score of 0 if no trace of the product of hydrolysis was seen after 8 hours of incubation).
For Ac-GATFHKKFL-NH2 [TFHK], the “hydrolysis score” value [3] was 3 (a score of 3 for detection at 8 hours) and the “hydrolysis score” value [4] was 3 (a score of 3 for detection at 8 hours).
